According to patent US8609719B2, “Propargylated aminoindans, processes for preparation, and uses thereof” (priority 2006, dated 2013):
Where a name gives a salt, the structure may show the parent alone.

How the values were obtained:
MAO-A = target: T1, MAO-A (Rattus norvegicus, UniProt P21396); experiment: Inhibition of MAO activity in vitro (5-HT substrate); format: biochemical
T1 construct: from tissue; host or cells: brain, liver and intestine (duodenum) of dosed rats
T1 sequence (P21396 1-526): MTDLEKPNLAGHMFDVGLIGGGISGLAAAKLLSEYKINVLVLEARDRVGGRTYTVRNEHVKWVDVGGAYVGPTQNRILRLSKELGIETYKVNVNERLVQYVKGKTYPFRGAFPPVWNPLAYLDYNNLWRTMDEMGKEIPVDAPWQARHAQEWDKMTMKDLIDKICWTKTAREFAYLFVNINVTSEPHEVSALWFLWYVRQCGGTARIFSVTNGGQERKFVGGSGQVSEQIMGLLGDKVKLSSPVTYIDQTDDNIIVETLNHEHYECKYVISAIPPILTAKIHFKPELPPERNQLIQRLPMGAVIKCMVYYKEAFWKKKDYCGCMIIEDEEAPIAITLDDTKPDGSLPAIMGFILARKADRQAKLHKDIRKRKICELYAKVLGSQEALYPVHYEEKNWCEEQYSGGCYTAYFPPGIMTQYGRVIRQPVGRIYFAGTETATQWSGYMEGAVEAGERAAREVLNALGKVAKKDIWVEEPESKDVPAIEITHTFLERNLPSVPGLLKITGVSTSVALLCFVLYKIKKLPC
Method: The MAO enzyme source was a homogenate of rat brain in 0.3M sucrose. The homogenate was diluted appropriately, and pre-incubated with serial dilutions of test compounds—diluted in phosphate buffer containing clogyline when 2-phenylethylamine (PEA) is the substrate, and diluted in phosphate buffer containing selegiline when 5-hydroxytryptamine (5-HT) is the substrate—for 60 minutes at 37° C. 14C-Labeled substrates (PEA for MAO-B determination and 5-HT for MAO-A determination) were then added, and the incubation continued for a further 20 minutes (PEA) or 30 minutes (5-HT). Substrate concentrations used were 10 μM (PEA) and 100 uM (5-HT). Enzyme concentration was chosen so that not more than 10% of the substrate was metabolized during the course of the reaction. Deaminated products were extracted into toluene-ethyl acetate (1:1 v/v) containing 0.4% (w/v) 2,5-diphenyloxazole (ppo) prior to determination by liquid scintillation counting. Radioactivity in the eluate indicated the production of neutral and acidic metabolites formed as a result of MAO activity. Activity of MAO in the sample was expressed as a percentage of control activity in the absence of inhibitor after subtraction of appropriate blank values. The activity determined using PEA as substrate is referred to as MAO-B, and that determined using 5-HT as MAO-A.
Concentrations of each inhibitor producing 50% inhibition of substrate metabolism (IC50) were calculated from the inhibition curves, and are shown in Table 1.

BuChE from human serum = target: T2, BuChE from human serum (Homo sapiens, UniProt P06276); experiment: Inhibition of butyrylcholinesterase activity in vitro (Ellman, stopped time assay); format: biochemical; design: ki (bimolecular rate constant): unit not given here
T2 construct: BuChE from human serum (C-9971); purchased Sigma-Aldrich Israel C-9971; host or cells: purified from human serum
T2 sequence (P06276 29-602): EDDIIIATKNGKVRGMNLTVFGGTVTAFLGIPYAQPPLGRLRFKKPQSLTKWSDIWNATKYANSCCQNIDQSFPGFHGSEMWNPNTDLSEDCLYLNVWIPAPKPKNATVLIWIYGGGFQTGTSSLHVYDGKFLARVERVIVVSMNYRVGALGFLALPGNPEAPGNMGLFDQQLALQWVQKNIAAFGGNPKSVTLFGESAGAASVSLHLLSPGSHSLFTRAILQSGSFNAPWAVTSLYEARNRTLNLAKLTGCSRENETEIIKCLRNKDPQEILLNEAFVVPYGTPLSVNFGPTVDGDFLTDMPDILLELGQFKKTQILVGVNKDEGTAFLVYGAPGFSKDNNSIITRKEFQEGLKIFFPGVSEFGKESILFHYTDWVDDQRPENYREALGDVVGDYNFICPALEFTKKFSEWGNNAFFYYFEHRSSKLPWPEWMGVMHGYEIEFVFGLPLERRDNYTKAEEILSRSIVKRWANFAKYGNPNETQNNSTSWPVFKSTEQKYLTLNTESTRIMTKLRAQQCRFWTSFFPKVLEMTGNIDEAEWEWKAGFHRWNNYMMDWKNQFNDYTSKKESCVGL
Method: BuChE from human serum (C-9971), butyrylthiocholine iodide (BuTh, B3253), bovine serum albumin (BSA, A-2153) 5,5′-dithiobis(2-nitrobenzoic acid) (DTNB, D8130) were obtained from Sigma-Aldrich Israel. BuChE was dissolved in phosphate buffer pH 8.0 containing 0.01% sodium azide (NaAz) and 1 mM EDTA and diluted to give a concentration of 35.9 units/ml. This solution was divided into aliquots of 0.5 ml, which were stored at −70° C. until use.
The inhibitory activity against BuChE was determined by the method of Ellmann et al. (Biochemical Pharmacology, 1961 (7) 88-95) using BuTh as a substrate. To characterize the carbamoylation step, a traditional stopped time assay was performed, in which BuChE was incubated at 37° C. with a minimum of 5 different concentrations of inhibitor in the assay buffer, and aliquots were transferred to an ELISA multiscan microplate reader (Labsystems) at various times for the determination of residual BuChE activity, with Ascent PC® software. The rate of reaction was measured at 412λ at 37° C. in 0.2 ml wells containing […] 0.023 units per ml, DTNB 0.4-0.5 mM, AcTh 0.50 or 1 mM and BSA (0.05%) in 50 mM phosphate buffer as described above. For all compounds measurements were made every 2 min for 15 min and then every 15 min for 3 hr.
The inhibition of BuChE by carbamates involves the formation of a reversible complex (EOH•CX), followed by carbamoylation of the enzyme to form (EOC) and a leaving group (HX). The carbamoylated enzyme is then hydrolyzed by water to regenerate the free enzyme (EOH). The formation of the reversible complex is represented by the equilibrium constant: KD. For the carbamoylation phase of the inhibition process the unimolecular rate constant is represented by kmax, and the bimolecular rate constant by ki.

[1] = Pharmacokinetic analysis of ladostigil and metabolites in Alzheimer's disease patients; settings: human, in vivo, 100 mg; for Cmax / AUC / AUC(0-t): after ladostigil tartrate 100 mg twice daily; for concentration at 12 h: mean concentration at pre-dose, 12 hours after the previous dose of ladostigil tartrate; for AUC: AUC (M)

Compound: CNC(=O)Oc1ccc2c(c1)[C@H](N)CC2 [R-MCAI, Methyl-carbamic acid 3-R-amino-indan-5-yl ester hydrochloride]
- IC50 (MAO-A): 32.2 µM
- Kd (BuChE from human serum): 36 ± 5 µM
- inhibition of butyrylcholinesterase, in words (BuChE from human serum): potent inhibitors
- ki (bimolecular rate constant) (BuChE from human serum; BuChE, 37° C.): 14.5 ± 0.42
- kmax (unimolecular carbamoylation rate constant) (BuChE from human serum; BuChE, 37° C.): 0.516 ± 0.050 min⁻¹
- half-life ([1]; both): 8.09 h
- Cmax ([1]; both, Cmax (M), mean, mean of patients, maintenance analysis Week 4): 2.7e-07 M
- Cmax ([1]; both, Cmax (T), mean, mean of patients, termination analysis Week 9): 2.61e-07 M
- concentration at 12 h ([1]; both, Cmin (M), mean of patients, maintenance analysis Week 4): 1.53e-07 M
- concentration at 12 h ([1]; both, Cmin (T), mean of patients, termination analysis Week 9): 1.39e-07 M
- AUC ([1]; Patient 1, maintenance analysis Week 4): 62 ng·h/mL
- AUC ([1]; Patient 2, maintenance analysis Week 4): 121 ng·h/mL
- AUC ([1]; Patient 3, maintenance analysis Week 4): 172 ng·h/mL
- AUC ([1]; Patient 4, maintenance analysis Week 4): 191 ng·h/mL
- AUC ([1]; Patient 5, maintenance analysis Week 4): 171 ng·h/mL
- AUC ([1]; Patient 6, maintenance analysis Week 4): 144 ng·h/mL
- AUC ([1]; Patient 7, maintenance analysis Week 4): 213 ng·h/mL
- AUC ([1]; Patient 8, maintenance analysis Week 4): 86 ng·h/mL
- AUC(0-t) ([1]; Patient 1, termination analysis Week 9): 570 ng·h/mL
- AUC(0-t) ([1]; Patient 2, termination analysis Week 9): 733 ng·h/mL
- AUC(0-t) ([1]; Patient 3, termination analysis Week 9): 958 ng·h/mL
- AUC(0-t) ([1]; Patient 4, termination analysis Week 9): 672 ng·h/mL
- AUC(0-t) ([1]; Patient 5, termination analysis Week 9): 895 ng·h/mL
- AUC(0-t) ([1]; Patient 6, termination analysis Week 9): 964 ng·h/mL
- AUC(0-t) ([1]; Patient 7, termination analysis Week 9): 186 ng·h/mL
- AUC(0-t) ([1]; Patient 8, termination analysis Week 9): 426 ng·h/mL
- Cmax ([1]; Cmax (M), Patient 1, maintenance analysis Week 4): 1e-07 M
- Cmax ([1]; Cmax (M), Patient 2, maintenance analysis Week 4): 2e-07 M
- Cmax ([1]; Cmax (M), Patient 3, maintenance analysis Week 4): 3e-07 M
- Cmax ([1]; Cmax (M), Patient 4, maintenance analysis Week 4): 3e-07 M
- Cmax ([1]; Cmax (M), Patient 5, maintenance analysis Week 4): 3e-07 M
- Cmax ([1]; Cmax (M), Patient 6, maintenance analysis Week 4): 3e-07 M
- Cmax ([1]; Cmax (M), Patient 7, maintenance analysis Week 4): 4e-07 M
- Cmax ([1]; Cmax (M), Patient 8, maintenance analysis Week 4): 2e-07 M
- Cmax ([1]; Cmax (T), Patient 1, termination analysis Week 9): 2e-07 M
- Cmax ([1]; Cmax (T), Patient 2, termination analysis Week 9): 2e-07 M
- Cmax ([1]; Cmax (T), Patient 3, termination analysis Week 9): 3e-07 M
- Cmax ([1]; Cmax (T), Patient 4, termination analysis Week 9): 2e-07 M
- Cmax ([1]; Cmax (T), Patient 5, termination analysis Week 9): 4e-07 M
- Cmax ([1]; Cmax (T), Patient 6, termination analysis Week 9): 3e-07 M
- Cmax ([1]; Cmax (T), Patient 7, termination analysis Week 9): 2e-07 M
- Cmax ([1]; Cmax (T), Patient 8, termination analysis Week 9): 2e-07 M
